What was measured:
[1] = system: cancer cell lines, DetermaIO classes; assay: Association of PRISM compound sensitivity with DetermaIO (DTIO) cell line classes; assay type: cell-based
[2] = system: cancer cell lines classified IM, MSL, M; assay: PRISM screen compound sensitivity correlated with IM, MSL and M subtype of cell lines (101 gene signature); assay type: cell-based; conditions: for IM Corr test: correlation of PRISM compound sensitivity with IM subtype correlation; for M Corr test: correlation of PRISM compound sensitivity with M subtype correlation; for MSL Corr test: correlation of PRISM compound sensitivity with MSL subtype correlation
[3] = correlation of PRISM compound sensitivity with DTIO; test cell set
[4] = correlation of PRISM compound sensitivity with DTIO; training cell set
[5] = subtype (IM, MSL or M) with which PRISM compound sensitivity is negatively correlated, training cell set, 101 gene signature
[6] = subtype (IM, MSL or M) with which compound sensitivity is negatively correlated, training cell set (371 cell lines), 101 gene signature
[7] = correlation of PRISM compound sensitivity with DTIO (DetermaIO); test cell set (188 cell lines)
[8] = correlation of PRISM compound sensitivity with DTIO (DetermaIO); training cell set (371 cell lines)
[9] = correlation of PRISM compound sensitivity with DTIO; test cell set (188 cell lines)
[10] = correlation of PRISM compound sensitivity with DTIO; training cell set (371 cell lines)
[11] = correlation of compound sensitivity with DetermaIO (DTIO), test set
[12] = correlation of compound sensitivity with DetermaIO (DTIO), training set

Row | SMILES | DTIO Corr test [1, 3] | DTIO Corr train [1, 4] | IM Corr test ([2]; test cell set) | M Corr test ([2]; test cell set) | MSL Corr test ([2]; test cell set) | IM Corr test ([2]; test cell set (188 cell lines)) | M Corr test ([2]; test cell set (188 cell lines)) | MSL Corr test ([2]; test cell set (188 cell lines)) | also measured
1 | Cc1ccc(C[N+](C)(C)C)o1.[I-] [5-methylfurmethiodide] | −0.01347 | −0.1413 | −0.09845 | 0.06783 | 0.0844 | – | – | – | –
2 | CN[C@@H]1C[C@H]2O[C@@](C)([C@@H]1OC)n1c3ccccc3c3c4c(c5c6ccccc6n2c5c31)C(=O)N[C@H]4O [7-hydroxystaurosporine] | −0.07646 | −0.1515 | −0.06588 | 0.06924 | 0.09088 | – | – | – | –
3 | COc1ccc2nc3c(c(N)c2c1)CCCC3 [7-methoxytacrine] | 0.06329 | −0.03204 | −0.03879 | −0.03683 | −0.06604 | – | – | – | TNBCType train [2, 5]: MSL
4 | Nc1nc2c(nc(Br)n2[C@@H]2O[C@@H]3COP(=O)(O)O[C@H]3[C@H]2O)c(=O)[nH]1 [8-bromo-cGMP] | −0.017 | 0.07485 | – | – | – | −0.00708 | −0.06633 | −0.05953 | TNBCType train [2, 6]: MSL
5 | CCN(CC)CCCCN1c2ccccc2Oc2ccc(Cl)cc21 [10-DEBC] | – | – | – | – | – | −0.00116 | −0.0627 | −0.03074 | DTIO Corr test [1, 7]: −0.02503; DTIO Corr train [1, 8]: −0.1109
6 | Cc1ccc(Sc2cncc3sc(C(N)=O)cc23)cc1 [A205804] | – | – | – | – | – | −0.1562 | 0.1655 | 0.07391 | DTIO Corr test [1, 7]: −0.1235; DTIO Corr train [1, 8]: −0.1273
7 | C/C=C1/[C@H](O[C@@H]2O[C@H](CO)[C@@H](O)[C@H](O)[C@H]2O)OC=C(C(=O)OC)[C@H]1CC(=O)OCCc1ccc(O)c(O)c1 [A00842753] | – | – | – | – | – | – | – | – | DTIO Corr test ([1]; association of compound sensitivity with DetermaIO classes; test data set): 0.02172; DTIO Corr train ([1]; association of compound sensitivity with DetermaIO classes; training data set): −0.00213; TNBCType test ([2]; classification of association of compound sensitivity with IM, MSL and M cell line classes, test data set): MSL; TNBCType train ([2]; classification of association of compound sensitivity with IM, MSL and M cell line classes, training data set): MSL
8 | C#Cc1cccc2c1c(C(=O)c1ccc(Cn3c(C)nc4cnccc43)c(F)c1)cn2C(=O)N(C)C [ABT-491] | – | – | – | – | – | −0.08486 | 0.04621 | 0.009812 | DTIO Corr test [1, 9]: −0.1207; DTIO Corr train [1, 10]: −0.1065
9 | C/C(=N\NC(=O)[C@H]1C(=O)NC[C@@H]1c1ccccc1)c1cccc(Br)c1 [AC-264613] | – | – | – | – | – | −0.07621 | 0.0938 | 0.002402 | DTIO Corr test [1, 7]: −0.03521; DTIO Corr train [1, 8]: −0.07682
10 | C[C@H](Nc1ncnc2[nH]cnc12)c1cc2ccc(F)cc2nc1-c1ccccn1 [AMG319] | 0.03283 | −0.03859 | – | – | – | 0.07986 | −0.1713 | −0.08814 | TNBCType train [2, 6]: MSL
11 | C[C@H](Nc1ncnc2[nH]cnc12)c1cc2ccc(F)cc2nc1-c1ccccn1 [AMG-319] | −0.04463 | −0.0218 | −0.00518 | −0.1202 | −0.07748 | – | – | – | TNBCType train [2, 5]: MSL
12 | CCOc1ccc(-n2c([C@@H](C)N(Cc3cccnc3)C(=O)Cc3ccc(OC(F)(F)F)cc3)nc3ncccc3c2=O)cc1 [AMG-487] | – | – | – | – | – | −0.08583 | 0.04766 | 0.1557 | DTIO Corr test [1, 7]: −0.01666; DTIO Corr train [1, 8]: −0.0821
13 | C[C@@H]1COC(Nc2ccc3ncnc(Nc4ccc(OCc5nccs5)c(Cl)c4)c3c2)=N1 [ARRY-334543] | −0.03109 | −0.05992 | −0.1679 | 0.2632 | 0.3622 | – | – | – | DTIO Corr test [1, 11]: −0.03109; DTIO Corr train [1, 12]: −0.05992
14 | Clc1ccc(C2(c3ccc(-c4cn[nH]c4)cc3)CCNCC2)cc1 [AT7867] | 0.003574 | 0.04812 | – | – | – | 0.04603 | −0.1665 | −0.1142 | TNBCType train [2, 6]: MSL
15 | C=CC(=O)Nc1cc2c(Nc3ccc(F)c(Cl)c3)ncnc2cc1C#CC(C)(C)N1CCN(C)CC1.Cc1ccc(S(=O)(=O)O)cc1.Cc1ccc(S(=O)(=O)O)cc1 [AV-412] | −0.04654 | −0.09469 | −0.1668 | 0.2317 | 0.3378 | – | – | – | DTIO Corr test ([1]; correlation of compound sensitivity with DTIO; test set): −0.04654; DTIO Corr train ([1]; correlation of compound sensitivity with DTIO; training set): −0.09469
16 | Cc1cc(Nc2nc(N[C@@H](C)c3ccc(F)cc3)c(C#N)cc2F)n[nH]1 [AZ960] | – | – | – | – | – | −0.0625 | 0.008122 | 0.05509 | DTIO Corr test [1, 7]: −0.07766; DTIO Corr train [1, 8]: −0.135
17 | Cc1ccc(NC(=O)c2cccc(C(C)(C)C#N)c2)cc1Nc1ccc2ncn(C)c(=O)c2c1 [AZ-628] | 0.3247 | 0.1908 | – | – | – | 0.3356 | −0.2327 | 0.1133 | DTIO Corr test [1, 11]: 0.3247; DTIO Corr train [1, 12]: 0.1908; DTIO Corr test ([1]; correlation of compound sensitivity with DetermaIO (DTIO); test set): 0.3247; DTIO Corr train ([1]; correlation of compound sensitivity with DetermaIO (DTIO); training set): 0.1908
18 | C=CCNC(=O)c1cc([N+](=O)[O-])cc2c(=O)[nH]c(Nc3ccc(Cl)c(Cl)c3)nc12 [AZ-10417808] | −0.05539 | −0.1839 | −0.06367 | 0.03341 | 0.2588 | – | – | – | –
19 | N[C@@H]1CCCN(c2c(/C=C3\SC(=O)NC3=O)cccc2-c2ccccc2)C1 [AZD1208] | 0.02868 | 0.03472 | 0.06359 | −0.02916 | 0.004575 | – | – | – | –
20 | C[C@@H](Oc1cc(NS(=O)(=O)N2CCC2)nc(SCc2cccc(F)c2F)n1)[C@@H](O)CO [AZD5069] | −0.00725 | −0.151 | −0.07882 | 0.1362 | 0.02875 | – | – | – | –
21 | Cc1ncc(-c2ccnc(Nc3ccc(S(C)(=O)=O)cc3)n2)n1C(C)C [AZD5438] | – | – | – | – | – | −0.1498 | 0.0844 | 0.1271 | DTIO Corr test [1, 7]: −0.1301; DTIO Corr train [1, 8]: −0.08372
22 | Cc1nc(C)c(-c2ccc(C3CCC(CC(=O)O)CC3)cc2)nc1C(N)=O (stereo not shown) [AZD7687] | −0.03167 | −0.02143 | −0.05809 | 0.08898 | 0.08286 | – | – | – | –
23 | CNC(=O)CN1CCC(Oc2cc3c(Nc4cccc(Cl)c4F)ncnc3cc2OC)CC1 [AZD8931] | – | – | – | – | – | −0.09307 | 0.2208 | 0.4034 | DTIO Corr test [1, 9]: 0.04159; DTIO Corr train [1, 10]: −0.08735
24 | Cc1c(-c2ccnn2C)cc(C(=O)NCc2ccc(S(C)(=O)=O)cn2)c(=O)n1-c1cccc(C(F)(F)F)c1 [AZD9668] | −0.00254 | 0.06934 | 0.06774 | −0.1139 | 0.009005 | – | – | – | –
25 | O=C(c1ccc(Cl)o1)N1CC2CNCC2C1 (stereo not shown) [AZD 1446] | −0.00648 | −0.01778 | – | – | – | −0.01023 | −0.00226 | −0.09838 | TNBCType train [2, 6]: MSL
26 | Cc1ccc(S(=O)(=O)/C=C/C#N)cc1 [BAY-11-7082] | 0.04014 | −0.00647 | – | – | – | 0.07793 | −0.1474 | 0.0317 | –
27 | Cc1oc2nc3c(c(NC(=O)CN4CCCC4=O)c2c1C)CCCC3 [BCI-540] | 0.01234 | −0.02488 | 0.07689 | −0.08152 | −0.1815 | – | – | – | TNBCType train [2, 5]: MSL
28 | CC(C)CCN1c2nc(Nc3cc(F)c(O)c(F)c3)ncc2N(C)C(=O)C1C (stereo not shown) [BI-D1870] | 0.01854 | −0.09163 | – | – | – | −0.01584 | 0.01001 | 0.02005 | –
29 | C/C(=C\C(=O)Nc1ccccc1C(=O)O)c1ccc2ccccc2c1 [BIBR-1532] | −0.226 | −0.05255 | – | – | – | −0.1712 | 0.141 | −0.1482 | TNBCType train [2, 6]: MSL
30 | CN1C(=O)N(c2cc(Cl)cc(Cl)c2)C(=O)[C@]12CN(Cc1cc(C(=O)O)cs1)C[C@H]2c1ccc(C#N)cc1 [BMS-587101] | −0.08591 | 0.01986 | – | – | – | −0.05699 | 0.1367 | −0.03676 | TNBCType train [2, 6]: MSL
